14 molecules from PubChem BioAssay (NCI) can be followed below.

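All cell lines were grown in 96-well plates and treated with compound for 48 hours. TGI: total growth inhibition.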

Test systems include SW-620 colon; SN12C renal; SF-268 CNS; A549 NSCLC; MALME-3M melanoma; MCF7 breast; K-562 leukemia; OVCAR-5 ovarian; COLO 205 colon; OVCAR-4 ovarian.
Test in all cases: NCI tumour cell line growth inhibition, 48 h

In the case of `C#CCOC(=O)C=[N+]=[N-]`, the TGI in the experiment with SW-620 colon, with SN12C renal, in the experiment on SF-268 CNS, in the experiment on A549 NSCLC, in the experiment on MALME-3M melanoma and in the experiment with MCF7 breast was greater than 10 µM throughout. The TGI with K-562 leukemia and with OVCAR-5 ovarian was greater than 10 µM in each case.
Turning to `Cc1ccc(N=NC(=Nc2ccc(F)cc2)c2ccc(N(CCC#N)CCC#N)cc2)cc1`, the TGI in the experiment with SW-620 colon, with SN12C renal, with SF-268 CNS, with A549 NSCLC, with MCF7 breast and in the experiment on K-562 leukemia was greater than 100 µM each time. The TGI in the experiment with COLO 205 colon, in the experiment with OVCAR-5 ovarian and in the experiment with OVCAR-4 ovarian was greater than 100 µM in each case.
In the case of `CC1=C[C@H](C[C@]2(C)c3c(c4c(C)cccc4oc3=O)O[C@@H]2C)OC1=O`, the TGI in the experiment on SW-620 colon was 75 µM; with SN12C renal it was greater than 100 µM; in the experiment on SF-268 CNS, 63.4 µM; in the experiment with A549 NSCLC, greater than 100 µM; in the experiment with MALME-3M melanoma, greater than 100 µM; in the experiment with MCF7 breast, greater than 100 µM. Also, the TGI in the experiment on K-562 leukemia, in the experiment on COLO 205 colon and in the experiment with OVCAR-5 ovarian was greater than 100 µM throughout.
For `O=[N+]([O-])C1=Cc2c(O)ccc(O)c2C2OC=CC12` (stereo not drawn), the TGI in the experiment with SW-620 colon was greater than 77.4 µM; in the experiment with SN12C renal it was 35 µM; with SF-268 CNS, 35.5 µM; in the experiment with A549 NSCLC it was 43.4 µM; with MCF7 breast, 30.9 µM; in the experiment on K-562 leukemia it was greater than 100 µM. Also, the TGI in the experiment on COLO 205 colon was greater than 63.8 µM; in the experiment on OVCAR-5 ovarian, 51.5 µM; in the experiment with OVCAR-4 ovarian it was 30.2 µM.
For the molecule `CCCCCCCCCCCCCOCCOCCOCCCCC(O)CCCCCCCCCC1=C[C@H](C)OC1=O` (stereo partly drawn), the TGI in the experiment with SW-620 colon was 76.9 µM; in the experiment with SN12C renal, 71.4 µM; in the experiment on SF-268 CNS it was 82.2 µM; with A549 NSCLC, 36.9 µM; with MCF7 breast, greater than 100 µM; in the experiment on K-562 leukemia, greater than 100 µM. Further, the TGI was determined as 52.3 µM with COLO 205 colon, 78.7 µM in the experiment on OVCAR-5 ovarian and 71.9 µM with OVCAR-4 ovarian.
As for `COC(=O)/C(=C(/C)c1ccco1)P(=O)(OC)OC`, the TGI in the experiment with SW-620 colon, in the experiment on SN12C renal, with SF-268 CNS, in the experiment with A549 NSCLC, with MALME-3M melanoma and in the experiment on MCF7 breast was greater than 100 µM throughout. Besides, the TGI with COLO 205 colon, with OVCAR-5 ovarian and in the experiment with OVCAR-4 ovarian was greater than 100 µM throughout.
For `CC(C)(C)c1ccc(O)c(C(O)c2ccccn2)c1` (stereo not drawn), the TGI with SW-620 colon, with SN12C renal, in the experiment on SF-268 CNS, in the experiment with A549 NSCLC, in the experiment on MALME-3M melanoma and in the experiment on MCF7 breast was greater than 100 µM each time. Further, the TGI is greater than 100 µM in the experiment on K-562 leukemia, greater than 100 µM in the experiment on COLO 205 colon and 89.6 µM in the experiment on OVCAR-5 ovarian.
With `Cc1cccc(-c2cc(=O)c3cccnc3[nH]2)c1`, the TGI in the experiment on SW-620 colon, in the experiment with SN12C renal, in the experiment with SF-268 CNS, with A549 NSCLC, in the experiment with MCF7 breast and with K-562 leukemia was greater than 100 µM throughout. The results for the TGI in the experiment with COLO 205 colon, with OVCAR-5 ovarian and in the experiment on OVCAR-4 ovarian were 7.5 µM, greater than 100 µM and greater than 100 µM, respectively.
Regarding `C[C@]12CCC(=O)C=C1CC[C@@H]1[C@@H]2CC[C@]2(C)C(=O)/C(=C/c3ccc([N+](=O)[O-])cc3)C[C@@H]12`, the TGI in the experiment on SW-620 colon was greater than 100 µM; in the experiment on SN12C renal, greater than 100 µM; in the experiment on SF-268 CNS it was greater than 100 µM; with A549 NSCLC, greater than 100 µM; with MALME-3M melanoma it was greater than 100 µM; in the experiment with MCF7 breast it was 23.5 µM. Moreover, the TGI with K-562 leukemia, with COLO 205 colon and in the experiment on OVCAR-5 ovarian was greater than 100 µM throughout.
For the molecule `COc1ccc(/C=C2\C(=O)N(C(=O)c3ccc(NC(C)=O)cc3)N=C2C)cc1OC`, the TGI in the experiment on SW-620 colon, in the experiment on SN12C renal, in the experiment on SF-268 CNS, in the experiment on A549 NSCLC, with MALME-3M melanoma and in the experiment on K-562 leukemia was greater than 100 µM in each case. The TGI in the experiment with COLO 205 colon, in the experiment on OVCAR-5 ovarian and in the experiment with OVCAR-4 ovarian was greater than 100 µM throughout.
`CCN(CC)P(=O)(c1ccc2c(c1)OCCOCCOCCOCCO2)N(CC)CC`: the TGI in the experiment on SW-620 colon, in the experiment on SN12C renal, with SF-268 CNS, in the experiment on A549 NSCLC, with MALME-3M melanoma and in the experiment with MCF7 breast was greater than 100 µM in each case. In addition, the TGI in the experiment on K-562 leukemia and in the experiment with COLO 205 colon was greater than 100 µM throughout.
On to `Fc1ccc(/C=C2\COCC3=C2NC(=S)NC3c2ccc(F)cc2)cc1` (stereo not drawn), for which the TGI in the experiment with SW-620 colon is 36 µM; with SN12C renal it was 33.3 µM; in the experiment with SF-268 CNS, 33.9 µM; with MCF7 breast, 39.5 µM; with K-562 leukemia, 44.6 µM; with COLO 205 colon, 35.1 µM. Further, the TGI with OVCAR-5 ovarian amounted to 47 µM; in the experiment on OVCAR-4 ovarian, 38.5 µM.
`COc1ccc(Nc2nc3ccccc3nc2-c2cccs2)cc1OC`: the TGI in the experiment with SW-620 colon, in the experiment on SN12C renal, with SF-268 CNS, in the experiment on A549 NSCLC, in the experiment on MCF7 breast and in the experiment on K-562 leukemia was greater than 10 µM throughout. The TGI in the experiment with COLO 205 colon, in the experiment with OVCAR-5 ovarian and with OVCAR-4 ovarian was greater than 10 µM each time.
Take `O=C(CSc1nc2ccccc2c(=O)n1-c1ccccc1)N=Nc1c(O)[nH]c2ccc(Br)cc12`: the TGI was greater than 51.2 µM in the experiment on SW-620 colon; 4.22 µM in the experiment on SN12C renal; greater than 38.3 µM with SF-268 CNS; 10.9 µM in the experiment on A549 NSCLC; 5.74 µM in the experiment with MALME-3M melanoma; greater than 27.9 µM in the experiment with MCF7 breast. In addition, the figures for the TGI with K-562 leukemia, in the experiment with COLO 205 colon and in the experiment with OVCAR-5 ovarian were 10.3 µM, greater than 35.6 µM and 8.53 µM, respectively.
